Reference: ChEMBL document CHEMBL4251687, “Acyl Sulfonamides NaV1.7 Blockers Useful for the Treatment of Pain” (ACS Med Chem Lett, 2018)
pIC50: −log10 of the molar value.

How the values were obtained:
Format in all cases: cell-based
[1] = biological target: T1, Sodium channel protein type 9 subunit alpha (Homo sapiens, UniProt Q15858); experiment: Displacement of [3H]-labelled radioligand from human Nav1.7 expressed in HEK293 cells measured after 24 hrs by liquid scintillation counting method
[2] = biological target: T1, Sodium channel protein type 9 subunit alpha; experiment: Inhibition of Nav1.7 (unknown origin) expressed in HEK293 cells at -60 mV holding potential measured after 600 secs by patch clamp method
[3] = biological target: Sodium channel protein type 5 subunit alpha (Homo sapiens, UniProt Q14524); experiment: Inhibition of Nav1.5 (unknown origin) expressed in HEK293 cells at -40 mV holding potential measured after 600 secs by patch clamp method
Sequence of Sodium channel protein type 5 subunit alpha (Q14524 whole entry): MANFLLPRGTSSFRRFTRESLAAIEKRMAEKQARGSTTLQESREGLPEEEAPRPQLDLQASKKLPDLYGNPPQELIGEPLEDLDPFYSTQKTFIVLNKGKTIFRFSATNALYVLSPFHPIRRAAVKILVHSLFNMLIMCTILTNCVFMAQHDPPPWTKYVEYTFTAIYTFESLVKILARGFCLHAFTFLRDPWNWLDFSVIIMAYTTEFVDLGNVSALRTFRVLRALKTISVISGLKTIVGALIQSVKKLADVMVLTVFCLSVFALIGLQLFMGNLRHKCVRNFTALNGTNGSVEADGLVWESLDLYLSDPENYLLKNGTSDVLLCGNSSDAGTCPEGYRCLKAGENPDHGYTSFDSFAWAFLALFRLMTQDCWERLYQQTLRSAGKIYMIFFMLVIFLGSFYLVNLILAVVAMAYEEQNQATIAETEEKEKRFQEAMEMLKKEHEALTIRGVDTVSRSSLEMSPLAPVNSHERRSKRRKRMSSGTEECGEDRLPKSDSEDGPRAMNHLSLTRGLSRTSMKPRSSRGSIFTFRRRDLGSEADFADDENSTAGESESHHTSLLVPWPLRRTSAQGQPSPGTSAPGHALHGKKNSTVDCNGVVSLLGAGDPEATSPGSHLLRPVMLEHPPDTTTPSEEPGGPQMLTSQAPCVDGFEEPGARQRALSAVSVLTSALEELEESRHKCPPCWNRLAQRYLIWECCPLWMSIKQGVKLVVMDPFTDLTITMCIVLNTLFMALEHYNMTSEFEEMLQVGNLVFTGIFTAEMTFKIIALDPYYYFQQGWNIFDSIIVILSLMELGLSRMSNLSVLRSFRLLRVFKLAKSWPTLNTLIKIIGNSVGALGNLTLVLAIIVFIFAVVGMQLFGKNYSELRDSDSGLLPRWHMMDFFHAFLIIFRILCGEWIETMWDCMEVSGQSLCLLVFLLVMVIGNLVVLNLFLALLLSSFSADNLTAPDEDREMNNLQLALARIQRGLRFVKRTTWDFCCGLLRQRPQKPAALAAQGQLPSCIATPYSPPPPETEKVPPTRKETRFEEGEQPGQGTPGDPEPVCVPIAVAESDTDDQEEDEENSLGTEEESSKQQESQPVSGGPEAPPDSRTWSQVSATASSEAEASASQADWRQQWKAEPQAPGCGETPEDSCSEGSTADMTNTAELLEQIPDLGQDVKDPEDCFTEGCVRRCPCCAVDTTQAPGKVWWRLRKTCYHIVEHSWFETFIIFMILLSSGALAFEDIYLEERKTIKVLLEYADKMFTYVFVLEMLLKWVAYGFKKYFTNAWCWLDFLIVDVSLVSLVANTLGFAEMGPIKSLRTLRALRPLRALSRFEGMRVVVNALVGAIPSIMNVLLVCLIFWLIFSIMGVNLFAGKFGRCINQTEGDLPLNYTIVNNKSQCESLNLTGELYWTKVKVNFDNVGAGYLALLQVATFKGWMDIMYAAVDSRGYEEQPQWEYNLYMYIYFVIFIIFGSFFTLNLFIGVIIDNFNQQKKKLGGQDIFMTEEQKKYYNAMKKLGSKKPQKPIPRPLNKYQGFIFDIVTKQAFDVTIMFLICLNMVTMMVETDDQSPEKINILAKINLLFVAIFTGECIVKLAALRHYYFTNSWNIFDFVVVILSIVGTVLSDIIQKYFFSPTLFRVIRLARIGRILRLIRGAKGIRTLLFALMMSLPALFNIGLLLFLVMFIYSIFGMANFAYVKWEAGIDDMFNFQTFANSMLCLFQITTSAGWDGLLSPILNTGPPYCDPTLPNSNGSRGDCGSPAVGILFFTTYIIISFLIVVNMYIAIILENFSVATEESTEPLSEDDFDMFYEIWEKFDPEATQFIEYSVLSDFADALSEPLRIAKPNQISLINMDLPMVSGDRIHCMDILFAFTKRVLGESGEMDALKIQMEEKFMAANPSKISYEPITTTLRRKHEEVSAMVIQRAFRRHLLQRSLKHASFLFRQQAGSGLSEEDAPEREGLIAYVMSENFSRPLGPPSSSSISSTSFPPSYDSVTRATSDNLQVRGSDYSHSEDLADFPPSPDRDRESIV

T1 sequence (Q15858 whole entry): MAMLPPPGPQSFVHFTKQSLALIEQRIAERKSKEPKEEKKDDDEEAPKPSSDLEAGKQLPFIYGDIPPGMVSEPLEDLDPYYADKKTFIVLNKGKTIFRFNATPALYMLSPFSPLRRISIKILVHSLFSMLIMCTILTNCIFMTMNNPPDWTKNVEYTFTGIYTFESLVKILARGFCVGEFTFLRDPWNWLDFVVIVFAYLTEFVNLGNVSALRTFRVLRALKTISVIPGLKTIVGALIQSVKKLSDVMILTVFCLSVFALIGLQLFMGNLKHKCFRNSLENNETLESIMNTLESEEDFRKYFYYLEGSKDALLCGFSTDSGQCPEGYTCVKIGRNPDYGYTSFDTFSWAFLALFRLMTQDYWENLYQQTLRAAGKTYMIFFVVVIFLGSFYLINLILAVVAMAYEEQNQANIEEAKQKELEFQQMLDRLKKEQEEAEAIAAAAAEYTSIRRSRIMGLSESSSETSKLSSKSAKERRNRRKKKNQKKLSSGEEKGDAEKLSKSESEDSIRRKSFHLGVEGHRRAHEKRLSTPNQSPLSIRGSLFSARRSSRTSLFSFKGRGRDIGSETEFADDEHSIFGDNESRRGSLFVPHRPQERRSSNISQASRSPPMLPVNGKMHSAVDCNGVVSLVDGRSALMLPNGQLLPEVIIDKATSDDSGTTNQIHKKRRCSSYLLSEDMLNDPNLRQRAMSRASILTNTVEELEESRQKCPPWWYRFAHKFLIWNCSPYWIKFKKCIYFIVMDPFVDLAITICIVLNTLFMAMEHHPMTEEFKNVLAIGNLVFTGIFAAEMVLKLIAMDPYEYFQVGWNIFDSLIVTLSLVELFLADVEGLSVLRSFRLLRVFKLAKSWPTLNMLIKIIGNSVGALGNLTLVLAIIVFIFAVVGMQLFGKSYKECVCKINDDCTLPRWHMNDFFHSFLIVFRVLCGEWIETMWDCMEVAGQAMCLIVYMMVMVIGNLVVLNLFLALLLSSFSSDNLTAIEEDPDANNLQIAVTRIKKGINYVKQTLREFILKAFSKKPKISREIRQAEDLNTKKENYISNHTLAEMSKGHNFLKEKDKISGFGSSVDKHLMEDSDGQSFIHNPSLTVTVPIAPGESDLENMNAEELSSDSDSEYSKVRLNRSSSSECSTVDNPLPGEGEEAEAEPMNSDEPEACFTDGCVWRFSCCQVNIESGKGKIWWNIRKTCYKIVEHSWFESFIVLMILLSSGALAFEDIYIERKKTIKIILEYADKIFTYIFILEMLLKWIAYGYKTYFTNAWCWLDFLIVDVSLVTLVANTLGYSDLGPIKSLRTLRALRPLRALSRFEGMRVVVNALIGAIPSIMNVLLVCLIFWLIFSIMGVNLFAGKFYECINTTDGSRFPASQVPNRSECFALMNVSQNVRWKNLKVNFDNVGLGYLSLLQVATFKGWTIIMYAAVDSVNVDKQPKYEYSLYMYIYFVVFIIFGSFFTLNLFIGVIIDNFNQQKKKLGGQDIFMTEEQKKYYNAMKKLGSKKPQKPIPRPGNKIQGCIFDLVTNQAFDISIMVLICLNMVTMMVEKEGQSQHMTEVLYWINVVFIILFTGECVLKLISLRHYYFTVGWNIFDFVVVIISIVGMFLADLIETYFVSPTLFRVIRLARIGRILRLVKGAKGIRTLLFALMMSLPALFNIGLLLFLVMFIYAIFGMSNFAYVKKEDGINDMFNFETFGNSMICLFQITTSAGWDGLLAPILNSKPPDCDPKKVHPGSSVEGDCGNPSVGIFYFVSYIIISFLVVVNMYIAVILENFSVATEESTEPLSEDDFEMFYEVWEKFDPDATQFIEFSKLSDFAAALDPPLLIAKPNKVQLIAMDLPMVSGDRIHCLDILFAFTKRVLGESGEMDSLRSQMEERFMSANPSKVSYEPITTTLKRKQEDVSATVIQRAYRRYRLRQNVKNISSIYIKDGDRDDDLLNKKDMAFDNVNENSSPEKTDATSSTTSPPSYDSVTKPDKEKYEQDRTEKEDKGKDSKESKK

## Cn1cc(-c2ccc(C(F)F)cc2)c2cc(F)c(C(=O)NS(=O)(=O)C3CC3)cc21
[1]
  pIC50: 7.34

## CC(C)COc1ncc(-c2cn(C)c3cc(C(=O)NS(C)(=O)=O)ccc23)cc1Cl
[2]
  pIC50: 7.05

## Cn1cc(-c2ccc(C(F)(F)F)cc2)c2cc(F)c(C(=O)NS(C)(=O)=O)cc21
[3]
  pIC50: 4.52
